Assay results published in article PMC5736709, “Unravelling the specificity and mechanism of sialic acid recognition by the gut symbiont Ruminococcus gnavus” (Nature Communications, 2017).
Entries after “also recorded” stand apart in the source; their conditions may differ.

How the values were obtained:
SpCBM40_NanC = target: SpCBM40_NanC; design: method as in PMID 26370075; details: isolated S. pneumoniae SpCBM40_NanC ref 37; cited from earlier work
RgCBM40 E126A = target: T1, RgCBM40 E126A (Mediterraneibacter gnavus (Ruminococcus gnavus), UniProt A7B557, E126A); assay: ITC of sialoglycans binding to RgCBM40 mutant E126A; design: species or system Ruminococcus gnavus ATCC 29149; details: for Kd: ITC
T1 sequence (A7B557 50-237 E126A): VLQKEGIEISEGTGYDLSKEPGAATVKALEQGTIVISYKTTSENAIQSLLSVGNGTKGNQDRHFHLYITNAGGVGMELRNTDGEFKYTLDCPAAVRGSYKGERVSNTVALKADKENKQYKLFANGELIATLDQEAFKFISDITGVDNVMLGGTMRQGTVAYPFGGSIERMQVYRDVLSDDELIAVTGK
Description: (§1) Site directed mutagenesis of RgGH33 to introduce the D282A mutation in the active site was carried out using the QuikChange kit, following the manufacturer’s instructions, Agilent (Santa Clara, CA, USA). Site-directed mutants of RgCBM40; I95A, Y116A, E126A, R128A, R204A and double mutant R128A/R204A, were obtained from NZyTech (Lisbon, Portugal). The primers are listed in Supplementary Table 4. The integrity of the RgGH33 and RgCBM40 mutants was checked by circular dichroism (CD).
(§2) Isothermal titration calorimetry (ITC) experiments were performed using the PEAQ-ITC system (Malvern, Malvern, UK) with a cell volume of 200 µl. Prior to titration protein samples were exhaustively dialysed into PBS. The ligand was dissolved in the dialysis buffer. The cell protein concentration was 115 µM (except for mutant I95A where it was 173 µM and the wild-type interaction with 6′SL where it was 230 µM) and the syringe ligand concentration was 10 mM (25 mM for Neu5Ac). Controls with titrant (sugar) injected into buffer only were subtracted from the data. Analysis was performed using Malvern software, using a single-binding site model. The stoichiometry of binding sites was set to 1.0 as this was evident from the crystal structure. Quantitative and most qualitative experiments were carried out in triplicate.

RgCBM40 R128A = target: T2, RgCBM40 R128A (Mediterraneibacter gnavus (Ruminococcus gnavus), UniProt A7B557, R128A); assay: ITC of sialoglycans binding to RgCBM40 mutant R128A; design: species or system Ruminococcus gnavus ATCC 29149; details: for Kd: ITC
T2 sequence (A7B557 50-237 R128A): T1 sequence (A7B557 50-237 E126A)
Description: as §1, §2

RgCBM40 Y116A = target: T3, RgCBM40 Y116A (Mediterraneibacter gnavus (Ruminococcus gnavus), UniProt A7B557, Y116A); assay: ITC of sialoglycans binding to RgCBM40 mutant Y116A; design: species or system Ruminococcus gnavus ATCC 29149; details: for Kd: ITC
T3 sequence (A7B557 50-237 Y116A): T1 sequence (A7B557 50-237 E126A)
Description: as §1, §2

RgCBM40 I95A = target: T4, RgCBM40 I95A (Mediterraneibacter gnavus (Ruminococcus gnavus), UniProt A7B557, I95A); assay: STD NMR of sialoglycans with RgCBM40 I95A mutant; assay type: binding, Ruminococcus gnavus ATCC 29149; details: 1 mM sialoglycan, 50 μM RgCBM40 I95A
T4 sequence (A7B557 50-237 I95A): T1 sequence (A7B557 50-237 E126A)
Description: ^1H and ^13C resonance assignment for all the sugars was performed on the bases of 1D ^1H, 2D DQF-COSY, TOCSY, HSQC and NOESY experiments run on the free ligands in unbuffered D2O, pH 7.0. For STD NMR experiments, all the samples consisted of 1 mM sialoglycans and 50 μM RgCBM40 (WT or I95A mutant) in D2O buffer solution of 10 mM Tris-d11 pH 7.8 and 100 mM NaCl (ligand: protein ratio 20:1). An STD pulse sequence that included 2.5 ms and 5 ms trim pulses and a 3 ms spoil gradient was used. Saturation was achieved applying a train of 50 ms Gaussian pulses (0.40 mW) on the f2 channel, at 0.60 p.p.m. (on-resonance experiments) and 40 p.p.m. (off-resonance experiments). The broad protein signals were removed using a 40 ms spinlock (T1ρ) filter. All the experiments were recorded at ^1H frequency of 800.23 MHz on a Bruker Avance III spectrometer equipped with a 5 mm probe TXI 800 MHz H-C/N-D-05 Z BTO, at 288 K. For all the sialoglycans in the presence of RgCBM40, an STD experiment with a saturation time of 2 s and a relaxation delay of 5 s was performed, as a first test for binding. For the confirmed binders, the STD NMR experiments were carried out at different saturation times (0.5, 1, 2, 3, 4 and 5 s) with 1 K scans and relaxation delay of 5 s, in order to obtain the binding epitope mapping. […]

RgCBM40 Y210A = target: T5, RgCBM40 Y210A (Mediterraneibacter gnavus (Ruminococcus gnavus), UniProt A7B557, Y210A); assay: ITC of sialoglycans binding to RgCBM40 mutant Y210A; design: species or system Ruminococcus gnavus ATCC 29149; details: for Kd: ITC
T5 sequence (A7B557 50-237 Y210A): T1 sequence (A7B557 50-237 E126A)
Description: as §2

RgCBM40 R128A/R204A = target: T6, RgCBM40 R128A/R204A (Mediterraneibacter gnavus (Ruminococcus gnavus), UniProt A7B557, R128A/R204A); assay: ITC of sialoglycans binding to RgCBM40 double mutant R128A/R204A; design: species or system Ruminococcus gnavus ATCC 29149; details: for Kd: ITC
T6 sequence (A7B557 50-237 R128A/R204A): T1 sequence (A7B557 50-237 E126A)
Description: as §1, §2

| Structure (SMILES) | Kd (SpCBM40_NanC) | Binding by ITC (in words) (RgCBM40 E126A) | Kd (RgCBM40 E126A) | Binding by ITC (in words) (RgCBM40 R128A) | Kd (RgCBM40 R128A) | Binding by ITC (in words) (RgCBM40 Y116A) | Kd (RgCBM40 Y116A) | Binding to I95A by STD-NMR (RgCBM40 I95A) | Binding by ITC (in words) (RgCBM40 Y210A) | Kd (RgCBM40 Y210A) | Binding by ITC (in words) (RgCBM40 R128A/R204A) | Kd (RgCBM40 R128A/R204A) |
| --- | --- | --- | --- | --- | --- | --- | --- | --- | --- | --- | --- | --- |
| CC(=O)N[C@H]1[C@H]([C@H](O)[C@H](O)CO)O[C@@](O[C@H]2[C@@H](O)[C@@H](CO)O[C@@H](O[C@H]3[C@H](O)[C@@H](O)C(O)O[C@@H]3CO)[C@@H]2O)(C(=O)O)C[C@@H]1O (stereo partly drawn) [3′SL, α2-3 sialyllactose] | ~1.5 mM | abolished | > 25 mM | abolished; also recorded: loss of binding | > 25 mM | abolished | > 25 mM | confirmed | abolished | > 25 mM | abolished; also recorded: loss of binding | > 25 mM |
| CC(=O)N[C@H]1[C@H]([C@H](O)[C@H](O)CO)O[C@@](OC[C@H]2O[C@@H](O[C@H]3[C@H](O)[C@@H](O)C(O)O[C@@H]3CO)[C@H](O)[C@@H](O)[C@H]2O)(C(=O)O)C[C@@H]1O (stereo partly drawn) [6′SL, α2,6-sialyllactose] | ~1.6 mM | abolished | > 25 mM | abolished | > 25 mM | abolished | > 25 mM | confirmed | abolished | > 25 mM | abolished | > 25 mM |
